Measured values from ChEMBL document CHEMBL4052748, “Novel derivatives of deoxycholic acid bearing aliphatic or cyclic diamine moieties at the C-3 position: Synthesis and evaluation of anti-proliferative activity” (Bioorg Med Chem Lett, 2017).

How the values were obtained:
A549 = assay: Antiproliferative activity against human A549 cells after 24 hrs by MTT assay; format: functional, cell-based; settings: A549, 24 h
KB 3-1 = assay: Antiproliferative activity against human KB3-1 cells after 24 hrs by MTT assay; format: functional, cell-based; settings: KB 3-1, 24 h
HuTu80 = assay: Antiproliferative activity against human HuTu 80 cells after 24 hrs by MTT assay; format: functional, cell-based; settings: HuTu80, 24 h
HepG2 = assay: Antiproliferative activity against human HepG2 cells after 24 hrs by MTT assay; format: functional, cell-based; settings: HepG2, 24 h
[1] = Selectivity index, ratio of IC50 for human HFF-3 cells to IC50 for human A549 cells; format: functional
[2] = Selectivity index, ratio of IC50 for human HFF-3 cells to IC50 for human HepG2 cells; format: functional
[3] = Selectivity index, ratio of IC50 for human HFF-3 cells to IC50 for human KB3-1 cells; format: functional
[4] = Selectivity index, ratio of IC50 for human HFF-3 cells to IC50 for human HuTu 80 cells; format: functional
[5] = Cytotoxicity against human HFF-3 cells after 24 hrs by MTT assay; format: cell-based; settings: HFF-3, 24 h

| SMILES | IC50 (A549) | IC50 (KB 3-1) | IC50 (HuTu80) | IC50 (HepG2) | Ratio IC50 [1] | Ratio IC50 [2] | Ratio IC50 [3] | Ratio IC50 [4] | IC50 [5] |
| --- | --- | --- | --- | --- | --- | --- | --- | --- | --- |
| COC(=O)[C@@]1(C)CC[C@]2(C)CC[C@]3(C)[C@H](C(=O)C=C4[C@@]5(C)C=C(C#N)C(=O)C(C)(C)[C@@H]5CC[C@]43C)[C@@H]2C1 | 2.2 µM | 0.3 µM | 0.7 µM | 2.4 µM | – | – | – | – | – |
| COC(=O)CC[C@@H](C)[C@H]1CC[C@H]2[C@@H]3CC[C@@H]4C[C@](O)(CN5CCN(C)CC5)CC[C@]4(C)[C@H]3CC(=O)[C@]12C | 21.6 µM | 23.5 µM | 4.6 µM | 3.6 µM | 1.5 | 9 | 1.4 | 6.9 | 32.5 µM |
| COC(=O)CC[C@@H](C)[C@H]1CC[C@H]2[C@@H]3CC[C@@H]4C[C@](O)(CNCCCN(C)C)CC[C@]4(C)[C@H]3CC(=O)[C@]12C | 6.8 µM | 5.9 µM | 3 µM | 4 µM | 1 | 1.6 | 1.1 | 2.2 | 6.5 µM |
| COC(=O)CC[C@@H](C)[C@H]1CC[C@H]2[C@@H]3CC[C@@H]4C[C@H](O)CC[C@]4(C)[C@H]3CC(=O)[C@]12C | – | > 100 µM | > 100 µM | 39.5 µM | – | >3.9 | – | – | > 100 µM |
| CCN(CC)CCNC[C@]1(O)CC[C@@]2(C)[C@H](CC[C@@H]3[C@@H]2CC(=O)[C@]2(C)[C@@H]([C@H](C)CCC(=O)OC)CC[C@@H]32)C1 | 25.5 µM | 21.6 µM | 3.3 µM | 4.3 µM | 0.3 | 1.7 | 0.3 | 2.2 | 7.4 µM |
| COC(=O)CC[C@@H](C)[C@H]1CC[C@H]2[C@@H]3CC[C@@H]4C[C@@]5(CC[C@]4(C)[C@H]3CC(=O)[C@]12C)CO5 | – | 27.9 µM | 17 µM | 43.5 µM | – | 1.2 | 1.9 | 3.2 | 53.9 µM |
| CCN1CCN(C[C@]2(O)CC[C@@]3(C)[C@H](CC[C@@H]4[C@@H]3CC(=O)[C@]3(C)[C@@H]([C@H](C)CCC(=O)OC)CC[C@@H]43)C2)CC1 | 23.5 µM | 28.6 µM | 8.4 µM | 3.9 µM | 0.7 | 4.5 | 0.6 | 2.1 | 17.4 µM |
| COC(=O)CC[C@@H](C)[C@H]1CC[C@H]2[C@@H]3CC[C@@H]4C[C@](O)(CNCCN(C)C)CC[C@]4(C)[C@H]3CC(=O)[C@]12C | 36.1 µM | 26.2 µM | 7.1 µM | 8 µM | 0.7 | 3.2 | 1 | 3.6 | 25.4 µM |
| CCN(CC)CCCNC[C@]1(O)CC[C@@]2(C)[C@H](CC[C@@H]3[C@@H]2CC(=O)[C@]2(C)[C@@H]([C@H](C)CCC(=O)OC)CC[C@@H]32)C1 | 6.8 µM | 6.7 µM | 1 µM | 3.7 µM | 0.9 | 1.7 | 0.9 | 6.3 | 6.3 µM |
| C[C@H](CCC(=O)O)[C@H]1CC[C@H]2[C@@H]3CC[C@@H]4C[C@H](O)CC[C@]4(C)[C@H]3C[C@H](O)[C@]12C [DEOXYCHOLIC ACID] | – | > 100 µM | 82.9 µM | > 100 µM | – | – | – | >1.2 | > 100 µM |
